Reference: PubChem BioAssay AID179 (DTP/NCI, 2004)
Values joined by “and” are separate entries in the source; they are usually repeats but may differ in a detail not shown here. Equal values may be shown once. Active and inactive are the calls of the source.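 Rule for the calls: active = compounds giving half or more protection of infected cells from virus-caused growth loss, again on retest; inactive = the rest.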 Where a SMILES comes first, the peptide text is derived from it. The star is where a group is joined. Cbz = O=C(OCc1ccccc1)*; Boc = CC(C)(C)OC(=O)*; OSu = O=C1CCC(=O)N1O*; OBn = c1ccc(CO*)cc1; Bn = c1ccc(C*)cc1

Tested on: CEM cells HIV-1 protection, formazan growth assay
Test: NCI AIDS Antiviral Assay
Settings: for IC50: measured here: growth of uninfected CEM cells
Procedure, shortened: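 Human CEM cells, uninfected and HIV-1-infected, received five drug concentrations, and growth was read by soluble formazan assay. Compounds giving at least 50% protection were retested; reproducible 100% protection defined confirmed active.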

SMILES | EC50 | IC50 | outcome
Cc1ccc(NC(=O)C(=O)CC(=O)c2c(C)n([O-])c3ccccc3[n+]2=O)cc1 | > 13.2 µM | > 13.2 µM | –
COc1c(CC(C)=O)ccc2c1C(=O)c1ccc(C=O)c(OC(C)=O)c1C2=O | – | – | inactive
Cc1cc(NC(=O)Nc2ccc(F)cc2)no1 | > 200 µM | > 200 µM | –
Cc1ccc(N2C=[N+](C)c3ccc(C)cc3C2)cc1 | > 200 µM | 33.9 µM | –
CC(=O)NNc1nc(C)c(C(=O)NNC(=O)C(=O)Nc2c(Cl)cc([N+](=O)[O-])cc2Cl)s1 | > 74.1 µM | > 74.1 µM | –
COc1ccccc1NCc1nnc(CCCCCCCCc2nnc(CNc3ccccc3OC)o2)o1 | > 200 µM | > 200 µM | –
COc1cc(C2c3cc(O)c(OC)cc3C[C@H]3C(=O)OCC23)ccc1O (some centres not stated) | > 141 µM | > 141 µM | –
O=C(c1cccs1)N(C(=S)N1CCN(c2ccccn2)CC1)C1CCCCC1 | > 12.6 µM | 12.3 µM | –
O=C1NCCN1/N=C/c1ccc([N+](=O)[O-])o1 | > 200 µM | 120 µM | –
Cc1ccc(OCC2OC(n3cnc4c(Cl)ncnc43)CC2Oc2ccc(C)cc2)cc1 (configuration not stated) | > 200 µM | 6.92 µM and 12.3 µM | –
COc1cc(/C=C2\CCC(C)C3=C2NC(=S)NC3c2cc(OC)c(OC)c(OC)c2)cc(OC)c1OC (configuration not stated) | > 200 µM | 32.4 µM | –
COc1cc(CC2c3cc(OC)c(OC)cc3CCN2C)ccc1O (configuration not stated) | > 380 µM | 138 µM | –
Cc1nc2ccc(NC3OCC(O)C(O)C3O)cc2c(=O)n1-c1ccccc1 (configuration not stated) | > 200 µM | 115 µM | –
Cn1c(=O)c2nc(NCc3ccccc3)sc2n(C)c1=O | > 61.7 µM | > 61.7 µM | –
CC(C)(C)OC(=O)NC(Cc1ccc(O)cn1)C(=O)O (configuration not stated) | > 200 µM | > 200 µM | –
Clc1ccc(-c2nnc(-c3nn(-c4ccccc4)c4nc5ccccc5nc34)o2)cc1 | > 1.29 µM | > 1.29 µM | –
S=c1[nH]nc2n1NC(c1ccccc1)=NN2 | > 295 µM | > 295 µM | –
CC(C)CC(NC(=O)OC(C)(C)C)C(=O)NC(CC(=O)OCc1ccccc1)C(N)=O (stereo not drawn) (Boc-Leu-Asp(OBn)-NH2; configuration not given here) | > 200 µM | > 200 µM | –
COc1ccc(C([Se]c2ccccc2)C2C(=O)N(O)CC(=O)N2O)cc1 (configuration not stated) | – | – | inactive
C=C(CN(C)C)C(=O)c1ccc(Oc2ccccc2)cc1 | > 200 µM | 3.47 µM | –
O=C1CCCC/C1=C1\C(=O)Nc2cc(F)ccc21 | > 1020 µM | 107 µM | –
CCOc1ccc(-n2c(=O)c(N=Nc3ccccc3Cl)c(O)n(-c3ccc(Br)cc3)c2=S)cc1 | > 174 µM | > 174 µM | –

SMILES | EC50 | IC50 | outcome
O=C1CSSCC(=O)NCCCN1 | > 45.7 µM | > 45.7 µM | –
O=C1c2ccccc2NC(=O)C2C1C(c1ccccc1)CC2(O)c1ccccc1 (configuration not stated) | > 200 µM | 33.1 µM | –
CC1(C)COC2(c3ccccc3)N(c3ccccc3)C(=O)ON12 (configuration not stated) | > 200 µM | > 200 µM | –
O=C(NNC(=O)c1nsc2ccccc12)c1ccc(Cl)cc1 | > 8.13 µM | > 8.13 µM | –
NS(=O)(=O)c1ccc(NC(=O)c2cccc3c(Nc4ccc(S(N)(=O)=O)cc4)c4ccccc4nc23)cc1 | > 34.7 µM | 26.3 µM | –
CC1(C(=O)O)CCOc2ccccc21 (configuration not stated) | – | – | inactive
O=C(Nc1ccccc1)OCCN=C1c2ccccc2CCc2ccccc21 | > 200 µM | 18.6 µM | –
O=[N+]([O-])c1ccccc1S(=O)(=O)Cc1ccccc1 | > 245 µM | > 245 µM | –
OC(Cc1cc(CC(O)(C(F)(F)F)C(F)(F)F)nc(CC(O)(C(F)(F)F)C(F)(F)F)c1)(C(F)(F)F)C(F)(F)F | > 200 µM | 1.02 µM | –
Nc1nc(=O)n(C2OC(CO)CC2F)cc1Cl (configuration not stated) | > 191 µM | > 191 µM | –
CCc1ccccc1C(C(=O)NC1CN2CCC1CC2)c1ccsc1 (configuration not stated) | > 200 µM | 61.7 µM | –
C=CCn1c(-c2cc(C(C)(C)C)c(O)c(C(C)(C)C)c2)cs/c1=N\C(P(=O)(O)O)P(=O)(O)O | > 200 µM | 21.4 µM | –
CC(C)(C)OC(=O)NS(=O)(=O)Nc1ccccc1 | > 200 µM | > 200 µM | –
COC1(C)CNCC(C)(C)NC(=O)C(C)(OC)CNCC(C)(C)NC1=O (configuration not stated) | > 81.3 µM | > 81.3 µM | –
COc1ccc(CN=C(N)N)c2ccccc12 | > 200 µM | 5.13 µM | –
O=C1Sc2ccccc2C(=O)N2CSCC12 (configuration not stated) | – | > 200 µM | inactive
Cc1c(NC(=O)Nc2ccc(F)cc2)c(=O)n(-c2ccccc2)n1C | > 200 µM | > 200 µM | –
O=c1[nH]c2ccccc2c(=O)c2cc3ccccc3cc12 | > 200 µM | > 200 µM | –
OCCNC(=S)SSC(=S)NCCO | – | – | inactive
C[C@H](c1ccccc1)N1C(=O)[C@@H](O)[C@H]1[C@H](CO)OCc1ccccc1 | > 200 µM | > 200 µM | –
O=C1NC(=O)C(=Cc2ccc(-c3ccccc3)cc2)C(=O)N1 | > 24.5 µM | > 24.5 µM | –
O=[N+]([O-])c1cccc(C2=NOC3CCCC23)c1 (configuration not stated) | – | – | inactive

SMILES | EC50 | IC50 | outcome
CC(C)(C)C1CCC(N=C(N)CSS(=O)(=O)O)CC1 (configuration not stated) | > 200 µM | 24 µM | –
O=C(/C=C/c1ccccc1)Oc1cccc2cccnc12 | > 200 µM | 3.63 µM | –
C[C@H]1CC[C@@]2(OC1)O[C@H]1C[C@H]3[C@@H]4CC[C@@H]5C[C@@H](OC6OC(CO)C(O)C(O)C6OC6OC(CO)C(O)C(O)C6O)CC[C@]5(C)[C@H]4CC[C@]3(C)[C@H]1[C@@H]2C (some centres not stated) | > 200 µM | 5.25 µM | –
C#CCSc1nnnn1-c1ccc(Br)c(C)c1 | > 200 µM | – | –
Cc1cc(C)nc(NS(=O)(=O)c2ccc(NC(=O)c3cccc4cc5ccccc5nc34)cc2)n1 | > 91.2 µM | 3.8 µM | –
COC1OC2COC(c3ccccc3)OC2C(OS(=O)(=O)c2ccc(C)cc2)C1OS(=O)(=O)c1ccc(C)cc1 (configuration not stated) | – | – | inactive
Clc1cc(Br)c2c3c(c(Br)cc(Cl)c13)C(Br)=C2Br | > 200 µM | 20 µM | –
COc1ccc(/C=C2\SC(=S)N(/C=C/c3nc4ccccc4[nH]c3=O)C2=O)cc1OC | > 200 µM | 32.4 µM | –
COc1cc(C(=O)c2cocc2C(=O)c2ccc3c(c2)OCO3)cc(OC)c1OC | – | – | inactive
Cn1c2ccccc2n2c(=O)c(-c3ccc(O)cc3)nnc12 | > 200 µM | > 200 µM | –
CSCc1nc2ccccc2c(C)[n+]1[O-] | > 200 µM | > 200 µM | –
ON=C1CCCCC(=NO)CCCC1 | > 200 µM | > 200 µM | –
N#CSC1=C(SC#N)C(=O)c2ccccc2C1=O | > 200 µM | 12.3 µM | –
c1ccc(C2=NOC(c3ccccc3)N2C23CC4CC(CC(C4)C2)C3)cc1 (configuration not stated) | > 200 µM | > 200 µM | –
Cc1cc2c(=O)cc(-c3cccs3)oc2c(C(=O)O)c1C | – | – | inactive
CCSSC12CCCN1C(=O)C(C)N(C)C2=O (configuration not stated) | > 200 µM | 20.4 µM | –
CN(C)CC1Cc2ccsc2C1=O (configuration not stated) | > 155 µM | 2.63 µM | –
Cc1ccc2c(c1)nc1c3ccccc3nnn21 | > 16.2 µM | > 16.2 µM | –
CC(=O)C1C(=O)C(=O)N(CCN2C(=O)C(=O)C(C(C)=O)C2=O)C1=O (configuration not stated) | > 11.2 µM | > 11.2 µM | –
O=[N+]([O-])c1ccccc1Sc1ccc(Cl)cc1 | > 135 µM | 38.9 µM | –
CN(C)C(=O)ON=C1c2ccccc2-c2ccccc21 | > 200 µM | 28.8 µM | –
O=C1N(c2ccccc2)SN2C3C=CC(C4CC43)N12 (configuration not stated) | > 182 µM | > 182 µM | –

SMILES | EC50 | IC50 | outcome
CC(C)c1nsc2c1C(=O)NC(C(C)(C)C)N2 (configuration not stated) | > 269 µM | 209 µM | –
CCOC(=O)C1=NN(c2ccccc2)C(=O)/C1=C/N1C(=O)/C(=C/c2ccc([N+](=O)[O-])cc2)SC1=S | > 200 µM | 23.4 µM | –
COC(=O)/C=C1/N=C(N(C)/N=C/c2ccccc2)NC1=O | > 200 µM | > 200 µM | –
O=C1CCC2(CCC(=O)NC2=O)C(=O)N1 | > 1200 µM | > 1200 µM | –
CCOC(=O)c1c(C)[nH]c(=S)c(C#N)c1-c1ccc(OC)cc1 | > 200 µM | 81.3 µM | –
O=CNNC(=O)Nc1ccc(Cl)cc1 | > 200 µM | > 200 µM | –
CC12CC(Sc3ccccc3N1)c1ccccc1O2 (configuration not stated) | > 132 µM | 21.4 µM | –
Cn1c(=O)cc(C=Nc2ccc(O)cc2)c2ccccc21 | > 200 µM | 1.74 µM | –
Cc1cc(C)nc(NS(=O)(=O)c2ccc(NC(=O)c3cccc4c(NNc5ccc(S(=O)(=O)N=C(N)N)cc5)c5ccccc5nc34)cc2)n1 | > 100 µM | 50.1 µM | –
CC1(C)CNC[C@](C)(OCCOC(c2ccccc2)(c2ccccc2)c2ccccc2)C(=O)NC(C)(C)CNC[C@@](C)(OCCOC(c2ccccc2)(c2ccccc2)c2ccccc2)C(=O)N1 | > 200 µM | > 200 µM | –
CC(C)(C)OC(=O)NC(Cc1ccc(OCc2ccccc2)cc1)C(=O)NC(CCCCNC(=O)OCc1ccccc1)C(=O)NC(CCCCNC(=O)OCc1ccccc1)C(=O)ON1C(=O)CCC1=O (configuration not stated) (Boc-Tyr(Bn)-Lys(Cbz)-Lys(Cbz)-OSu; configuration not given here) | > 100 µM | 46.8 µM | –
COc1cccc(CCNC(=O)CC#N)c1 | – | – | inactive
Nc1ccc(C(=O)NN2C(=O)C(Cl)C2c2cccc(O)c2)cc1 (configuration not stated) | > 200 µM | 9.55 µM | –
Cc1ccc(C(=O)CC(O)(C(F)(F)F)C(F)(F)F)cc1[N+](=O)[O-] | > 200 µM | 6.61 µM | –
CCOC(=O)CCCSCCCC1(CCCSCCCC(=O)OCC)OCCO1 | > 39.8 µM | > 39.8 µM | –
CCOC(=O)CC(=O)C(=O)NNC1=NCCCN1 | > 200 µM | > 200 µM | –
O=[N+]([O-])c1cccc(C2N3CCCCC3[C@@H]3c4[nH]c5ccccc5c4CCN23)c1 (some centres not stated) | > 18.6 µM | > 18.6 µM | –
CCOC(=O)C1C(=O)C(=O)N2CCc3c([nH]c4ccccc34)C12 (configuration not stated) | > 263 µM | 166 µM | –
CC(C)=CCC[C@@H](C)c1c2[nH]c3ccccc3sc-2c(C)c(=O)c1=O | > 200 µM | 4.27 µM | –
C[C@H](CCc1nc2ccccc2n1CCN(C)C)[C@H]1CC[C@H]2[C@@H]3CC[C@@H]4C[C@H](O)CC[C@]4(C)[C@H]3CC[C@]12C | 1.55 µM | 4.79 µM | –
